Reference: patent US10919841B2, “Monoamine reuptake inhibitors” (Research Triangle Institute, priority 2009, dated 2021)
Entries after “also recorded” stand apart in the source; their conditions may differ. Read-outs that look alike come from different tables or passages of the source.

What was measured:
serotonin transporter = serotonin transporter (Rattus norvegicus, UniProt P31652); test: 5-HT releasing/substrate activity using rat brain synaptosomes
(h)NET [1] = biological target: T1, (h)NET (Homo sapiens, UniProt P23975); test: competition binding with [125I]RTI-55 at (h)NET stably expressed in HEK293 cells; details: read-out: Binding, Ki NET; mean ± standard error of three independent experiments
rats [2] = test: cocaine discrimination (2-lever operant), i.p. administration; details: for responders at 5 mg/kg / responders at 10 mg/kg / responders at 25 mg/kg / ED50 / responders at 50 mg/kg / responders at 100 mg/kg: Rattus norvegicus, ip; for responders at 5 mg/kg / responders at 10 mg/kg / responders at 25 mg/kg / responders at 50 mg/kg / responders at 100 mg/kg: read-out: % cocaine lever responding; for ED50: read-out: Full Generalization ED50
mice [3] = test: locomotor activity, 8-h time course protocol; assay type: in vivo; details: for locomotor stimulant activity across the 1-h and 8-h protocols, in words: 1-h and 8-h tests compared; for Emax / ED50: Mus musculus; for Emax: read-out: Locomotor Activity 8-Hour % Peak Cocaine, percent of cocaine's maximal effect, 30 min period of maximum stimulation; for ED50: read-out: Locomotor Activity 8-Hour ED50; for Locomotor Activity 8-Hour Time, min Period, length: duration of locomotor activity; for Locomotor Activity 8-Hour Time, min Period, max: time period of maximum effect
(h)DAT [4] = biological target: T2, (h)DAT (Homo sapiens, UniProt Q01959); test: competition binding with [125I]RTI-55 at (h)DAT stably expressed in HEK293 cells; details: mean ± standard error of three independent experiments
T2 construct: expressed in transfected cells

(h)DAT [5] = biological target: T2, (h)DAT; test: block of [3H]dopamine reuptake in HEK-(h)DAT cells; assay type: cell-based; details: for times more potent than bupropion as DA uptake inhibitor: relative to bupropion
rats [6] = test: cocaine discrimination time-course study, oral administration; details: for ED50: Rattus norvegicus, po, 0.75 h; for generalization to cocaine: p.o.
(h)SERT [7] = biological target: T3, (h)SERT (Homo sapiens, UniProt P31645); test: block of [3H]serotonin reuptake in HEK-(h)SERT cells; assay type: cell-based
T3 construct: expressed in transfected cells; host or cells: HEK293

(h)SERT [8] = biological target: T3, (h)SERT; details: read-out: Binding, Ki SERT
mice [9] = test: locomotor activity, 1-h observation protocol; assay type: in vivo; details: for Emax / ED50: Mus musculus; for Emax: 0.5 h, read-out: Locomotor Activity 1-Hour % Peak Cocaine; for ED50 / Locomotor Activity 1-Hour ED50: dose to produce 50% of the compound's maximal effect, 1-h
(h)NET [10] = biological target: T1, (h)NET; test: block of [3H]norepinephrine reuptake in HEK-(h)NET cells; details: for times better as NE uptake inhibitors than bupropion: relative to bupropion
[11] = dose to produce 50% of the compound's maximal effect, 8-h
[12] = mean ± standard error of three independent experiments, read-out: Uptake, IC50 [3H]DA
[13] = read-out: Uptake, IC50 [3H]5-HT
[14] = read-out: IC50 for NE uptake inhibition, [3H]NE
[15] = mean ± standard error of three independent experiments
[16] = [3H]DA, read-out: IC50 for DA uptake inhibition
[17] = read-out: Uptake, IC50 [3H]NE, mean ± standard error of three independent experiments

T3 sequence (P31645 whole entry): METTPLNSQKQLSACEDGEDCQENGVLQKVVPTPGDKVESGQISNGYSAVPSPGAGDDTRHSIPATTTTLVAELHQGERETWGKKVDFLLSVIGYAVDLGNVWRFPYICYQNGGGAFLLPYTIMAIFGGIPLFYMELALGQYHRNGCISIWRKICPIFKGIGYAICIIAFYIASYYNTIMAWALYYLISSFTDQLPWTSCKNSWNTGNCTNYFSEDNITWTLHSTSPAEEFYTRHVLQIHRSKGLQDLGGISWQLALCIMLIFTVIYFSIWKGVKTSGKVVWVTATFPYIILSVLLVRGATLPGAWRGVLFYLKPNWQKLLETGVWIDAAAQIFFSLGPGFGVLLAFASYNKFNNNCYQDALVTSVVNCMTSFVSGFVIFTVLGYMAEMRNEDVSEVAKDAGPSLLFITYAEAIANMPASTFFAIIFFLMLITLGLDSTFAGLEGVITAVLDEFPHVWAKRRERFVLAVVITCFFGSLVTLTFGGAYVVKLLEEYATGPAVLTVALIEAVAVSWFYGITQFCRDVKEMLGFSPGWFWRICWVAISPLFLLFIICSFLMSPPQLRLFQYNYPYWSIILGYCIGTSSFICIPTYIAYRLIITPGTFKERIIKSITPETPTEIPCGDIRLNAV
T1 sequence (P23975 whole entry): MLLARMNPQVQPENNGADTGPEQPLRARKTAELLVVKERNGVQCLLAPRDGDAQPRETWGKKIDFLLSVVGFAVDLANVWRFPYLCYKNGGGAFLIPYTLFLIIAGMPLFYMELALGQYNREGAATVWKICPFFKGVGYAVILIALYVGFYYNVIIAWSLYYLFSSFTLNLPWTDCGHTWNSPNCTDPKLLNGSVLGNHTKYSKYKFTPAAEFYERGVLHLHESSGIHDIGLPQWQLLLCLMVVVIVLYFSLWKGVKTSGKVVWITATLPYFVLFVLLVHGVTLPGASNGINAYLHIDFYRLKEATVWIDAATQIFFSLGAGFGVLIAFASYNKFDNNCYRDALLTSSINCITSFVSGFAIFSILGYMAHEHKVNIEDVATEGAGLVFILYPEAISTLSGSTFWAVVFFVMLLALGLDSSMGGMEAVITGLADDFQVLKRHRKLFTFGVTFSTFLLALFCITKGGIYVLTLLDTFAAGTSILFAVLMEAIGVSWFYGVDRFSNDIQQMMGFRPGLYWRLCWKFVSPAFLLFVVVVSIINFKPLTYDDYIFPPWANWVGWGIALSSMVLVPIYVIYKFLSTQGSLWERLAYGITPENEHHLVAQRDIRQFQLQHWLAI
T2 sequence (Q01959 whole entry): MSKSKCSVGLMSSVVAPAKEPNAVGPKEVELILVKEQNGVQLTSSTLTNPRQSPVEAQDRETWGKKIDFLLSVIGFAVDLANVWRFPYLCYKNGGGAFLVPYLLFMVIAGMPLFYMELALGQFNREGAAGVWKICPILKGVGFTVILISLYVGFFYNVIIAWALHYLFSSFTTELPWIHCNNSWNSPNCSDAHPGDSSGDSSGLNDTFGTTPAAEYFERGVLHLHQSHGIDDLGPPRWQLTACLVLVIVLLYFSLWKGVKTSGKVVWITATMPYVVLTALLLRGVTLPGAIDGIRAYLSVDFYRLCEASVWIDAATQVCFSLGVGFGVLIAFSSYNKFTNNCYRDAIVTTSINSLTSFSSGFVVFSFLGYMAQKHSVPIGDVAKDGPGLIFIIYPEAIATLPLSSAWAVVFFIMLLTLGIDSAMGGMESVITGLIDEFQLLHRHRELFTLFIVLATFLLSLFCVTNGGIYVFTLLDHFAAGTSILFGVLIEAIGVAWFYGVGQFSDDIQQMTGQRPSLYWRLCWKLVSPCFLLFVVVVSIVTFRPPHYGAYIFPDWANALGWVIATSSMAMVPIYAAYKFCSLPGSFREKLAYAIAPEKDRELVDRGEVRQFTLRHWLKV
Sequence of serotonin transporter (P31652 whole entry): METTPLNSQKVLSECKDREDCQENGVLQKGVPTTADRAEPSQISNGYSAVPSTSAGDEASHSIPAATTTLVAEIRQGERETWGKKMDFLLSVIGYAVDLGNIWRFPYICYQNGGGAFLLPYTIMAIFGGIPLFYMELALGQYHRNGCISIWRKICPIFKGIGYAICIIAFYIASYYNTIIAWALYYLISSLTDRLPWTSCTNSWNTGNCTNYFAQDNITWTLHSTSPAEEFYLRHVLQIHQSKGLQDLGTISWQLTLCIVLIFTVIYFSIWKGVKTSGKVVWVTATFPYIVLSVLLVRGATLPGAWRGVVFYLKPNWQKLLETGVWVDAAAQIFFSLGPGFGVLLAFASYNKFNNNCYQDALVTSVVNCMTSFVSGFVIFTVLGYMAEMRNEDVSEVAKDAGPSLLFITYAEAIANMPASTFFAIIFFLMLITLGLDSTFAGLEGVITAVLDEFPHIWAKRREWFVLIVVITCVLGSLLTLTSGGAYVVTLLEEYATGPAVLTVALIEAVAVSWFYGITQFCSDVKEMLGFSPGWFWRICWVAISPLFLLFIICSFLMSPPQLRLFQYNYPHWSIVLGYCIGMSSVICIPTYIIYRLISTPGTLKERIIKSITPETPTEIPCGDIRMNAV

Row | Compound | EC50 (serotonin transporter) | Ki ((h)NET [1]) | responders at 10 mg/kg (rats [2]) | responders at 25 mg/kg (rats [2]) | locomotor stimulant activity across the 1-h and 8-h protocols, in words (mice [3]) | Emax (mice [3]) | ED50 (mice [3]; [11]) | Locomotor Activity 8-Hour Time, min Period, length (mice [3]) | Locomotor Activity 8-Hour Time, min Period, max (mice [3]) | Ki ((h)DAT [4]) | Emax (mice [9]) | ED50 (mice [9]) | IC50 ((h)DAT [5]; [16]) | further results
1 | Cc1cccc(C(=O)C(C)NC2CC2)c1 (stereo not shown) | 890 ± 63 nM | – | – | – | – | – | – | – | – | – | – | – | – | –
2 | CCCC(NC(C)(C)C)C(=O)c1ccc(Cl)c(Cl)c1 (stereo not shown) [Compound 2bb, 2-(tert-Butylamino)-3′,4′-dichloropentanophenone] | – | 520 nM | 17% | 10% | moderate activity in the 1-h test with increased activity in the time-course study | 100% | 35 mg/kg | 470 min | 0 to 30 min | 43.7 nM | 49% | 18.1 mg/kg | – | responders at 5 mg/kg (rats [2]): 1%; ED50 (rats [2]): 6.95 mg/kg; DA uptake inhibition, in words ((h)DAT [5]): slightly lower IC50 values than 2j; IC50 ((h)DAT [5]; [12]): 0.084 µM; ED50 (rats [6]): 17.3 mg/kg; IC50 ((h)SERT [7]; [13]): 1.58 µM; Ki ((h)SERT [8]): 842 nM; IC50 ((h)NET [10]; [14]): 0.043 µM; times better as NE uptake inhibitors than bupropion ((h)NET [10]): 34 times
3 | CC(NC1CC1)C(=O)c1ccc(Cl)c(Cl)c1 (stereo not shown) | 148 ± 35 nM | – | – | – | – | – | – | – | – | – | – | – | – | –
4 | Cc1ccc(C(=O)C(C)NC2CC2)cc1 (stereo not shown) | 707 ± 69 nM | – | – | – | – | – | – | – | – | – | – | – | – | –
5 | CC(NC1CC1)C(=O)c1ccc(Cl)cc1 (stereo not shown) | 2700 ± 314 nM | – | – | – | – | – | – | – | – | – | – | – | – | –
6 | CC(NC1CC1)C(=O)c1cccc(Br)c1 (stereo not shown) | 383 ± 56 nM | – | – | – | – | – | – | – | – | – | – | – | – | –
7 | CCC(NC(C)(C)C)C(=O)c1ccc(Cl)c(Cl)c1 (stereo not shown) [Compound 2aa, 2-(tert-Butylamino)-3′,4′-dichlorobutyrophenone] | – | 2240 nM | 10% | 10% | weak stimulants in both tests; also recorded: moderate activity in the 1-h test with increased activity in the time-course study | 84% | 42.2 mg/kg | 60 min | 0 to 30 min | 278 nM | 41% | 50.3 mg/kg | – | responders at 5 mg/kg (rats [2]): 1%; ED50 (rats [2]): 15 mg/kg; DA uptake inhibition, in words ((h)DAT [5]): slightly lower IC50 values than 2j; IC50 ((h)DAT [5]; [12]): 0.175 µM; IC50 ((h)SERT [7]; mean ± standard error of three independent experiments, read-out: Uptake, IC50 [3H]5-HT): 0.79 µM; Ki ((h)SERT [8]; [15]): 860 nM; IC50 ((h)NET [10]; [14]): 0.135 µM; times better as NE uptake inhibitors than bupropion ((h)NET [10]): 10 times
8 | COc1cccc(C(=O)C(C)NC2CC2)c1 (stereo not shown) | 676 ± 197 nM | – | – | – | – | – | – | – | – | – | – | – | – | –
9 | Cc1ccc(C(=O)C(C)NC(C)(C)C)cc1Cl (stereo not shown) [Compound 2k, 2-(N-tert-Butylamino)-3′-chloro-4′-methylpropiophenone] | – | 5100 nM | – | – | moderate activity in the 1-h test with increased activity in the time-course study | 87% | – | 60 min | 10 to 40 min | 1150 nM | 74% | 31.9 mg/kg | 0.65 µM | ED50 (mice [3]; 8 h): 60.8 mg/kg; times more potent than bupropion as DA uptake inhibitor ((h)DAT [5]): 2 times; IC50 ((h)SERT [7]; [3H]5HT, read-out: IC50 for 5HT uptake inhibition): 0.4 µM; Ki ((h)SERT [8]; [15]): 2100 nM; IC50 ((h)NET [10]; [17]): 0.9 µM
10 | CC(C(=O)c1cccc(Cl)c1)N1CCCCC1 (stereo not shown) [Compound 2ff, 2-Piperidino-3′-chloropropiophenone] | – | 4760 nM | 6% | 17% | inactive in the 1-h test but showed weak stimulant activity in the 8-h protocol | 45% | 15 mg/kg | 470 min | – | 1150 nM | – | – | 1.03 µM | responders at 50 mg/kg (rats [2]): 33%; responders at 100 mg/kg (rats [2]): 34%; onset and duration of locomotor activity, in words (mice [3]; mouse, in vivo): very slow onset of stimulatory activity; IC50 ((h)SERT [7]; [13]): 0.97 µM; Ki ((h)SERT [8]): 5480 nM; Locomotor Activity 1-Hour ED50 (mice [9]): NE^f; IC50 ((h)NET [10]; [17]): 4.8 µM
11 | CC(NC1CC1)C(=O)c1cccc(Cl)c1 (stereo not shown) [Compound 2x, 2-(N-Cyclopropylamino)-3′-chloropropiophenone] | 283 nM | 4000 nM | 67% | 34% | strong stimulants in both studies | 94% | 14.7 mg/kg | 350 min | 0 to 30 min | 1150 nM | 94% | 14.7 mg/kg | 0.265 µM | responders at 5 mg/kg (rats [2]): 6%; responders at 50 mg/kg (rats [2]): 17%; responders at 100 mg/kg (rats [2]): 17%; cocaine-appropriate responding (partial generalization) (rats [2]; i.p., 5 mg/kg): 67%; cocaine-appropriate responding (rats [2]; i.p., 10 mg/kg): 67%; response rate, in words (rats [2]; i.p., dose range given in the value): affected response rate at 25-100 mg/kg; times more potent than bupropion as DA uptake inhibitor ((h)DAT [5]): 3.6 times; ED50 (rats [6]): 13.3 mg/kg; generalization to cocaine (rats [6]; 45 min, 10 mg/kg): partial generalization; generalization to cocaine (rats [6]; 45 min, 25 mg/kg): partial generalization; generalization to cocaine (rats [6]; 90 min, 25 mg/kg): full generalization; generalization to cocaine (rats [6]; 180 min, 25 mg/kg): full generalization; IC50 ((h)SERT [7]; read-out: IC50 for 5HT uptake inhibition): 3.18 µM; Ki ((h)SERT [8]): 3420 nM; IC50 ((h)NET [10]; [14]): 2.15 µM
12 | Cc1ccc(C(=O)C(C)NC2CC2)cc1Cl (stereo not shown) | 139 ± 30 nM | – | – | – | – | – | – | – | – | – | – | – | – | –
13 | CC(C)(C)NC(CCC1CCCCC1)C(=O)c1cccc(Cl)c1 (stereo not shown) [Compound 2u, 2-(N-tert-Butylamino)-3′-chlorophenyl-4-cyclohexylbutanophenone] | – | 3800 nM | – | – | inactive in the 1-h test but showed weak stimulant activity in the 8-h protocol | – | – | 60 to 160 min | 60 to 90 min | 1700 nM | – | – | > 10 µM | % cocaine lever responding (rats [2]; rats, IP, dose 5 mg/kg): 0%; % cocaine lever responding (rats [2]; rats, IP, dose 10 mg/kg): 0%; % cocaine lever responding (rats [2]; rats, IP, dose 25 mg/kg): 70%; Comments (response rate) (rats [2]; rats, IP, response rate relative to vehicle control): B^b; Locomotor Activity 8-Hour ED50 (mice [3]; [11]): 15.3 mg/kg; Locomotor Activity 8-Hour % Peak Cocaine (mice [3]; percent of cocaine's maximal effect, 30 min period of maximum stimulation): 47%; IC50 ((h)DAT [5]; bound given in μM, read-out: Uptake, IC50 [3H]DA): > 10 µM; IC50 ((h)SERT [7]; bound given in μM, read-out: Uptake, IC50 [3H]5-HT): > 10 µM; Ki ((h)SERT [8]; [15]): 6200 nM; Locomotor Activity 1-Hour ED50 (mice [9]): NE^f; IC50 ((h)NET [10]; read-out: Uptake, IC50 [3H]NE, bound given in μM): > 10 µM
